Measured values taken from US5250537A, “5,6,7,8,9,10-hexahydro-7 ,10-iminocyclohept[b]indole,-6,7,8,9,10-hexahydro-7,11-imino-5H-cyclooct[ b]indole and substituted derivatives” (Scios Nova Inc., priority 1992, dated 1993).
Read-outs that look alike come from different tables or passages of the source.

What was measured:
dopamine (D-2) receptors = biological target: T1, dopamine (D-2) receptors (Rattus norvegicus, UniProt P61169); assay: In Vitro Dopamine (D-2) Receptor Binding, [3H]sulpiride
T1 construct: the corpus striatum was dissected and homogenized; from tissue; host or cells: rat corpus striatum membranes
T1 sequence (P61169 whole entry): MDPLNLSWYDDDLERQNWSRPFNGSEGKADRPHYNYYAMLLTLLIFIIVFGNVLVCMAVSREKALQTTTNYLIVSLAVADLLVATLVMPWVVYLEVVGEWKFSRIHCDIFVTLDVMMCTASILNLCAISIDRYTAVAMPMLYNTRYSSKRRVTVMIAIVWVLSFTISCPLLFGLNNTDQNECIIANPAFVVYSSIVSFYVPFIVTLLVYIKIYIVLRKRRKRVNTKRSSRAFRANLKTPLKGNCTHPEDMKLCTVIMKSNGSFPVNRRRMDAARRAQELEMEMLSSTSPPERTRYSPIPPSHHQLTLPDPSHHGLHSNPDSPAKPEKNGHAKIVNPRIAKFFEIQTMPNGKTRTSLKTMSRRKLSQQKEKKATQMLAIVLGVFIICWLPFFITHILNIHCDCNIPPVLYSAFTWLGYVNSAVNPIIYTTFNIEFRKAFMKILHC
Description: On the day of assay, rats were sacrificed by decapitation, the corpus striatum was dissected and homogenized in 20 volumes of ice-cold 50 mM Tris HCl (pH 7.5, 25° C.). The homogenate was centrifuged (4° C.) at 48,000×g for 10 minutes and the resulting pellet was resuspended in 20 volumes of fresh buffer and recentrifuged. […] A portion of the suspension (800 μL) was added in triplicate to tubes containing 3 nM [^3 H]sulpiride and the test compound. The final assay volume was 1 mL; haloperidol (10 μM) was used to determine non-specific binding. Following a 60 minute incubation at 25° C., the reactions were terminated by rapid filtration over Whatman GF/B filters which had been pretreated in a solution of 0.3% (w/v) of aqueous polyethylenimine. Filters were washed three times using 5 mL of ice-cold buffer and processed using standard procedures to determine radioactivity. IC50 values were obtained from concentration-response curves in which a number of concentrations of test compound were examined. Ki values were determined using the Cheng-Prusoff equation.

[1] = biological target: T2, serotonin 5-HT2 receptors (Rattus norvegicus, UniProt P14842); assay: In Vitro Serotonin (5-HT2) Receptor Binding, [3H]ketanserin; conditions: for Ki: rat cortical membranes, 1 nM [3H]ketanserin
T2 construct: Rat cortical synaptosomal membranes were prepared on the day of assay; from tissue; host or cells: rat frontal cortex synaptosomal membranes
T2 sequence (P14842 whole entry): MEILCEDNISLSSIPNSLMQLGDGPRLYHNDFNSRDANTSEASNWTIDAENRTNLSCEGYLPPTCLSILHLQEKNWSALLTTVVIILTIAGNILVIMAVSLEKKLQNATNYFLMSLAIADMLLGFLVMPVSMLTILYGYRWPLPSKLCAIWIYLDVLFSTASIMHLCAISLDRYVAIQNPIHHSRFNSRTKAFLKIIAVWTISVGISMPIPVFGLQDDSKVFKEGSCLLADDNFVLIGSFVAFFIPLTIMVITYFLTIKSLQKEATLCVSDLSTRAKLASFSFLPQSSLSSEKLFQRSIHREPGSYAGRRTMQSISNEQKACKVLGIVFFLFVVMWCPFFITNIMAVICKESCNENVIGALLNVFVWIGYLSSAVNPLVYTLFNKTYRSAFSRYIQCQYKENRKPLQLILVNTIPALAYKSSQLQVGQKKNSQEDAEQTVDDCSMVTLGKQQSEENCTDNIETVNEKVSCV
Description: The potency of compounds to inhibit the specific binding of [^3 H]ketanserin (84.2 Ci/mM) to serotonin 5-HT2 receptors was determined as detailed previously [J. E. Leysen, C. J. E. Niemegers, J. M. Van Neuten and P. M. Laduron, Mol. Pharmacol., 21, 301-314 (1982)]. Rat cortical synaptosomal membranes were prepared on the day of assay. Animals were sacrified by decapitation, the frontal cortex was removed and homogenized in 10 volumes (w/v) of ice-cold 0.32M sucrose using a motor driven teflon pestle fitted to a glass tube. The synaptosomal pellet was suspended in 50 mM Tris HCl (pH 7.6 at 25° C.) to a concentration of 7.5 mg original wet weight/mL. For the binding reaction, 400 μL of this tissue suspension was added to polypropylene tubes containing 50 mM Tris HCl and [^3 H]ketanserin (final concentration of 1 nM) in a final assay volume of 0.5 mL. Following a 15 minute incubation at 37° C., the binding reaction was terminated by rapid vacuum filtration over Whatman GF/B filters (presoaked in 0.1% PEI) followed by 3×4 mL washes with ice cold 50 mM Tris HCl. Nonspecific binding was assessed in the presence of 10 μM methysergide. All incubations were performed in triplicate. IC50 values were determined using log logit analysis.

[2] = biological target: sigma receptor ([3H]DTG site); assay: In Vitro Sigma Receptor Binding, [3H]DTG; conditions: guinea pig brain; 45 minutes at 25° C.
Description: (§1) For both assays frozen guinea pig brains (PelFreez Biologicals, Rogers, AK) were thawed and homogenized in 10 volumes (w/v) of ice cold 0.32M sucrose using 10 strokes of a motor-drivenglass-fitted teflon pestle adjusted to 600 rpm. The homogenate was centrifuged (4° C.) at 900× g for 10 minutes and the resultant supernatant collected and centrifuged at 22,000×g for 20 minutes. The pellet obtained from the centrifugation was resuspended in 10 volumes of 50 mM Tris HCl (pH 7.4, 25° C.) and incubated for 30 minutes at 37° C. Following the preincubation, the homogenate was centrifuted at 22,000×g for 20 minutes and the final pellet was resuspended in buffer to a protein concentration of 0.5-1.0 mg/mL for use in the assay.
(§2) Binding reactions were initiated by the addition of tissue (800 μL) to tubes containing assay buffer, the radioligand (final concentration 1-3 nM) and the compound of interest. Haloperidol (10 μM) and (+)-3-PPP (10 μM) were used to determine the levels of […] [^3 H]DTG and [^3 H](+)PPP binding, respectively. Final assay volume was 1 mL. Reactions were allowed to proceed for 45 minutes at 25° C. and terminated by rapid filtration over Whatman GF/B filters which were washed 3 times with 5 mL of cold buffer. Radioactivity trapped on the filters was determined using routine methods. […] All assays were performed using triplicate determinations. For comparison purposes, IC50 values are reported rather than Ki values.

[3] = biological target: T3, sigma receptor ([3H](+)-3-PPP site) (Cavia porcellus, UniProt Q60492); assay: In Vitro Sigma Receptor Binding, [3H](+)-3-PPP; set-up: species or system guinea pig; conditions: guinea pig brain; 45 minutes at 25° C.; read-out: Sigma [3H](+)-3-PPP binding IC50
T3 construct: frozen guinea pig brains; tissue PelFreez Biologicals, Rogers, AK; host or cells: guinea pig brain membranes
T3 sequence (Q60492 whole entry): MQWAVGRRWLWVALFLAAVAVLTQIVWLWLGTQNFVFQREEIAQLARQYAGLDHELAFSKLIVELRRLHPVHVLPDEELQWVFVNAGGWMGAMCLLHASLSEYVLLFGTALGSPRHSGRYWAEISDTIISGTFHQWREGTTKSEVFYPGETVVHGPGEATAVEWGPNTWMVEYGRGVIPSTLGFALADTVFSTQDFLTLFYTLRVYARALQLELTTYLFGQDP
Description: as §1, §2

[4] = rat corpus striatum, 3 nM [3H]sulpiride, read-out: Dopamine D-2 [3H]sulpiride Ki
[5] = read-out: Serotonin 5-HT2 [3H]ketanserin, % @ 1 μM
[6] = Dopamine D-2 [3H]sulpiride Ki, rat corpus striatum, 3 nM [3H]sulpiride
[7] = read-out: Serotonin 5-HT2 [3H]ketanserin, value @ 1 μM
[8] = read-out: Dopamine D-2 [3H]sulpiride Ki

Row | Structure (SMILES) | Ki (dopamine (D-2) receptors; [4]) [nM] | inhibition at 1 µM [1, 5] [%] | IC50 [2] [nM] | IC50 [3] [nM] | Ki [1] [nM] | also measured
1 | Fc1ccc2[nH]c3c(c2c1)C1CCC(C3)N1 (centres unmarked) [4 F H -- H 2] | 36600 | 28.2 |  |  |  | 
2 | CC(CCc1ccccc1)N1C2CCC1c1c([nH]c3ccccc13)C2 (single isomer, unassigned) [1 (high Rf) H H CH(CH3)(CH2)2 Ph 2] | 1110 |  | 23 | 1500 |  | 
3 | c1ccc2c3c([nH]c2c1)CC1CCC3N1 (centres unmarked) [1 H H -- H 2] | 100000 | 0.2 |  | 2180 |  | 
4 | c1ccc(CCN2C3CCC2c2c([nH]c4ccccc24)C3)cc1 (centres unmarked) [1 H H (CH2)2 Ph 2] | 840 | 8.8 |  |  |  | 
5 | c1ccc(CCN2C3CCC2c2c(n(Cc4ccccc4)c4ccccc24)C3)cc1 (centres unmarked) [5 H Bn (CH2)2 Ph 2] | 1620 | 23.3 |  |  |  | 
6 | O=C(CCCN1C2CCC1c1c(n(-c3ccccc3)c3ccccc13)C2)c1ccc(F)cc1 (centres unmarked) [2 H Ph (CH2)3 CO 4-FPh 2] | 840 |  | 528 | 510 | 814 | 
7 | c1ccc(OCCCCN2C3CCC2c2c([nH]c4ccccc24)C3)cc1 (centres unmarked) [1 H H (CH2)4 OPh 2] | 100 |  | 88 ± 15 | 205 | 48 | 
8 | O=C1CC2(CCCC2)CC(=O)N1CCCCN1C2CCC1c1c([nH]c3ccccc13)C2 (centres unmarked) [1 H H (CH2)4 [drawing 3] 2] |  | 12 |  |  |  | Ki (dopamine (D-2) receptors; [6]): 2380 ± 560 nM
9 | Fc1ccc2[nH]c3c(c2c1)C1CCC(C3)N1Cc1ccccc1 (centres unmarked) [4 F H CH2 Ph 2] | 3740 | 3.3 | 86 ± 14 | 908 ± 222 |  | 
10 | c1ccc2c(c1)CN(CCN1C3CCC1c1c([nH]c4ccccc14)C3)C2 (centres unmarked) [7 H H (CH2)2 2-isoindolinyl 2] | 2200 ± 180 |  |  |  |  | inhibition at 1 µM [1, 7]: 55.1%
11 | CN(CCc1ccc(Cl)c(Cl)c1)CCN1C2CCC1c1c([nH]c3ccccc13)C2 (centres unmarked) [9 H H (CH2)2 N(CH3)CH2 CH2-3,4-Cl2 Ph 2] | 2530 ± 160 |  |  |  |  | inhibition at 1 µM [1, 7]: 34.7%
12 | OCCCN1C2CCC1c1c([nH]c3ccc(F)cc13)C2 (centres unmarked) [4 F H (CH2)3 OH 2] | 37300 |  | 317 ± 49 | 1380 ± 188 |  | inhibition at 1 µM [1, 7]: 5.6%
13 | c1ccc(OCCCN2C3CCC2c2c([nH]c4ccccc24)C3)cc1 (centres unmarked) [1 H H (CH2)3 OPh 2] | 1270 ± 260 |  | 132 ± 16 | 262 ± 19 | 22.9 | 
14 | Fc1ccc(OCCCN2C3CCC2c2c([nH]c4ccccc24)C3)cc1 (centres unmarked) [1 H H (CH2)3 O-4-FPh 2] |  |  |  |  | 11.4 | 
15 | Fc1ccc(CCCCN2C3CCCC2c2c([nH]c4ccc(F)cc24)C3)cc1 (centres unmarked) [11 F H (CH2)4 4-FPh 3] | 1470 |  | 61 | 150 | 205 | 
16 | O=C1c2ccccc2C(=O)N1CCN1C2CCC1c1c([nH]c3ccccc13)C2 (centres unmarked) [6 H H (CH2)2 2-phthalimido 2] | 52100 |  |  |  |  | inhibition at 1 µM [1, 7]: 5.3%
17 | Clc1ccc(OCCN2C3CCC2c2c([nH]c4ccccc24)C3)cc1Cl (centres unmarked) [7 H H (CH2)2 O-3,4-Cl2 Ph 2] | 650 | 48.9 |  |  |  | 
18 | O=C(COc1ccc(Cl)c(Cl)c1)N1C2CCC1c1c([nH]c3ccccc13)C2 (centres unmarked) [7 H H COCH2 O-3,4-Cl2 Ph 2] | 64500 | 24.7 | > 10000 | > 10000 |  | 
19 | Fc1ccc2[nH]c3c(c2c1)C1CCC(C3)N1CCCCc1ccccc1 (centres unmarked) [4 F H (CH2)4 Ph 2] |  |  |  |  | 74 | Ki (dopamine (D-2) receptors; [8]): 770 nM
20 | O=C1c2ccccc2C(=O)N1CCCN1C2CCC1c1c([nH]c3ccc(F)cc13)C2 (centres unmarked) [6 F H (CH2)3 2-phthalimido 2] | 12300 ± 1700 |  | 836 | 3330 ± 1810 |  | inhibition at 1 µM [1, 7]: 4.9%

Row | Structure (SMILES) | Ki (dopamine (D-2) receptors; [4]) [nM] | inhibition at 1 µM [1, 5] [%] | IC50 [2] [nM] | IC50 [3] [nM] | Ki [1] [nM] | also measured
21 | CCCN1C2CCC1c1c([nH]c3ccccc13)C2 (centres unmarked) [1 H H (CH2)2 CH3 2] | 14400 ± 4400 |  |  |  |  | 
22 | CC(CCc1ccccc1)N1C2CCC1c1c([nH]c3ccccc13)C2 (single isomer, unassigned) [1 (low Rf) H H CH(CH3)(CH2)2 Ph 2] | 530 | 72.8 | 119 | 1160 |  | 
23 | c1ccc(OCCN2C3CCC2c2c([nH]c4ccccc24)C3)cc1 (centres unmarked) [1 H H (CH2)2 OPh 2] | 2600 |  | 110 ± 14 | 534 ± 57 | 20 | 
24 | Fc1ccc2[nH]c3c(c2c1)C1CCC(C3)N1CCCN1Cc2ccccc2C1 (centres unmarked) [7 F H (CH2)3 2-isoindolinyl 2] | 1780 ± 630 |  |  |  |  | inhibition at 1 µM [1, 7]: 72.2%
25 | Fc1ccc2[nH]c3c(c2c1)C1CCCC(C3)N1 (centres unmarked) [12 F H -- H 3] | 58300 |  | 509 | 305 | 3000 | 
26 | Clc1ccc(CCN2C3CCC2c2c([nH]c4ccccc24)C3)cc1Cl (centres unmarked) [1 H H (CH2)2 3,4-Cl2 Ph 2] | 3430 | 6.7 |  |  |  | 
27 | C=CCCN1C2CCC1c1c([nH]c3ccccc13)C2 (centres unmarked) [1 H H (CH2)2 CHCH2 2] | 710 | 12.3 |  |  |  | 
28 | Fc1ccc2[nH]c3c(c2c1)C1CCC(C3)N1Cc1ccccc1I (centres unmarked) [4 F H CH2 2-IPh 2] | 531000 | 0 |  |  |  | 
29 | C(=C\c1ccccc1)/CN1C2CCC1c1c([nH]c3ccccc13)C2 (centres unmarked) [1 H H E-CH2 CHCH Ph 2] | 2460 | 36.6 |  |  |  | 
30 | CN1C2CCC1c1c([nH]c3ccccc13)C2 (centres unmarked) [3 H H -- CH3 2] | 16700 ± 6000 | 26.4 |  |  |  | 
31 | O=C(CCCCN1C2CCC1c1c([nH]c3ccccc13)C2)c1ccc(F)cc1 (centres unmarked) [1 H H (CH2)4 CO 4-FPh 2] |  |  | 131 | 224 |  | Ki (dopamine (D-2) receptors; [6]): 3.5 nM
32 | c1ccc(CCCCN2C3CCC2c2c([nH]c4ccccc24)C3)cc1 (centres unmarked) [1 H H (CH2)4 Ph 2] |  |  |  |  | 56.5 | Ki (dopamine (D-2) receptors; [6]): 720 nM
33 | O=C(CCCN1C2CCC1c1c([nH]c3ccc(F)cc13)C2)c1ccc(F)cc1 (centres unmarked) [4 F H (CH2)3 CO 4-FPh 2] |  |  | 55 | 408 | 2.07 | 
34 | Fc1ccc(CCCCN2C3CCC2c2c([nH]c4ccccc24)C3)cc1 (centres unmarked) [1 H H (CH2)4 4-FPh 2] |  |  |  |  | 22.1 | Ki (dopamine (D-2) receptors; [8]): 1160 nM
35 | Cn1c2c(c3ccccc31)C1CCC(C2)N1CCCCc1ccccc1 (centres unmarked) [5 H CH3 (CH2)4 Ph 2] | 1820 ± 80 | 49 |  |  |  | 
36 | c1ccc(CCCN2C3CCC2c2c([nH]c4ccccc24)C3)cc1 (centres unmarked) [1 H H (CH2)3 Ph 2] | 2600 |  |  |  | 106 | 
37 | Fc1ccc2[nH]c3c(c2c1)C1CCC(C3)N1CCCc1cccnc1 (centres unmarked) [4 F H (CH2)3 3-pyridyl 2] | 12200 ± 4700 | 0 |  |  |  | 
38 | O=C(CCCN1C2CCC1c1c([nH]c3ccccc13)C2)c1ccc(F)cc1 (centres unmarked) [1 H H (CH2)3 CO 4-FPh 2] | 280 |  |  |  | 0.82 | 
39 | c1ccc(CN2C3CCC2c2c([nH]c4ccccc24)C3)cc1 (centres unmarked) [1 H H CH2 Ph 2] | 3650 | 22.4 |  |  |  | 
40 | c1ccc(C(CCN2C3CCC2c2c([nH]c4ccccc24)C3)c2ccccc2)cc1 (centres unmarked) [1 H H (CH2)2 CHPh2 2] | 4520 | 27.3 |  |  |  | 
